Assay [1] deals with T1, His-BIR2-3 (125-356, C202A/C213G, XIAP) (Homo sapiens, UniProt P98170, C202A/C213G).
T1 construct: additions of His-BIR2-3 (125-356, C202A/C213G, XIAP), fluorescein labeled dimeric SMAC peptide
Kind of assay: XIAP-BIR2-3 Dimeric SMAC Peptide Homogeneous Time Resolved Fluorescence (HTRF) Assay. Type of assay: binding. The conditions noted are these: XIAP BIR2-3, HTRF, Table 4.

The target of a further assay is T2, His-BIR3 (241-356, XIAP) (Homo sapiens, UniProt P98170).
T2 construct: additions of His-BIR3 (241-356, XIAP), fluorescein labeled SMAC peptide
T2 sequence (P98170 241-356): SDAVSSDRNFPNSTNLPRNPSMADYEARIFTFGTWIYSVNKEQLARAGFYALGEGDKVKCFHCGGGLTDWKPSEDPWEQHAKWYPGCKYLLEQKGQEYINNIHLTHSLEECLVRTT
Nature of the assay: XIAP-BIR3/SMAC Homogeneous Time Resolved Fluorescence (HTRF) Assay. Type of assay: binding. To be noted: Table 4.

T1 sequence (P98170 125-356 C202A/C213G): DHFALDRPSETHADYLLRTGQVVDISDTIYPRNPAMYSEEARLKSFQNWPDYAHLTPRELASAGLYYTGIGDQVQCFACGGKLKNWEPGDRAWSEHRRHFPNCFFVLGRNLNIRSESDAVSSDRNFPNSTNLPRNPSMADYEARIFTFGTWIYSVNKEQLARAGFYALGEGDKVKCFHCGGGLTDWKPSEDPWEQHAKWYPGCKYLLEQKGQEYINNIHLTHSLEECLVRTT

`CN[C@@H](C)C(=O)N[C@H](C(=O)N1C[C@@H]2C[C@H]1C(=O)N[C@@H](Cc1ccc3ccccc3c1)C(=O)N[C@H](C(=O)O)Cc1ccc(cc1)OCc1cn(nn1)[C@H]1C[C@@H](C(=O)N[C@@H](Cc3ccc4ccccc4c3)C(=O)N[C@H](C(=O)N3CC(C(=O)O)C3)Cc3ccc(cc3)OCc3cn2nn3)N(C(=O)[C@@H](NC(=O)[C@H](C)NC)C(C)(C)C)C1)C(C)(C)C` [Compound 1026]: the IC50 in assay [1] lay in the range of 1 to 10 nM; on His-BIR3 (241-356, XIAP) it was 10 to 100 nM.

`CN[C@@H](C)C(=O)N[C@H](C(=O)N1C[C@@H]2C[C@H]1C(=O)N[C@@H](Cc1ccc3ccccc3c1)C(=O)N[C@H](C(=O)O)Cc1ccc(cc1)OCc1cn(nn1)[C@H]1C[C@@H](C(=O)N[C@@H](Cc3ccc4ccccc4c3)C(=O)N[C@H](C(=O)N3CCC(C(=O)O)CC3)Cc3ccc(cc3)OCc3cn2nn3)N(C(=O)[C@@H](NC(=O)[C@H](C)NC)C(C)(C)C)C1)C(C)(C)C` [Compound 1027]: the IC50 in assay [1] fell in the range of 1 to 10 nM; at His-BIR3 (241-356, XIAP), 10 to 100 nM.

On to `CN[C@@H](C)C(=O)N[C@H](C(=O)N1C[C@@H]2C[C@H]1C(=O)N[C@@H](Cc1ccc3ccccc3c1)C(=O)N[C@H](C(=O)O)Cc1ccc(cc1)OCc1cn(nn1)[C@H]1C[C@@H](C(=O)N[C@@H](Cc3ccc4ccccc4c3)C(=O)N[C@H](C(=O)N(C)CCC(=O)O)Cc3ccc(cc3)OCc3cn2nn3)N(C(=O)[C@@H](NC(=O)[C@H](C)NC)C(C)(C)C)C1)C(C)(C)C` [Compound 1028], for which the IC50 in assay [1] was at most 1 nM; on His-BIR3 (241-356, XIAP), under 10 nM.

For `CN[C@@H](C)C(=O)N[C@H](C(=O)N1C[C@@H]2C[C@H]1C(=O)N[C@@H](Cc1ccc3ccccc3c1)C(=O)N[C@H](C(=O)O)Cc1ccc(cc1)OCc1cn(nn1)[C@H]1C[C@@H](C(=O)N[C@@H](Cc3ccc4ccccc4c3)C(=O)N[C@H](C(=O)NCc3cccc(-c4nnn[nH]4)c3)Cc3ccc(cc3)OCc3cn2nn3)N(C(=O)[C@@H](NC(=O)[C@H](C)NC)C(C)(C)C)C1)C(C)(C)C` [Compound 1029], the IC50 in assay [1] lay in the range of 1 to 10 nM; against His-BIR3 (241-356, XIAP), 10 to 100 nM.

Regarding `CN[C@@H](C)C(=O)N[C@H](C(=O)N1C[C@@H]2C[C@H]1C(=O)N[C@@H](Cc1ccc3ccccc3c1)C(=O)N[C@H](C(=O)O)Cc1ccc(cc1)OCc1cn(nn1)[C@H]1C[C@@H](C(=O)N[C@@H](Cc3ccc4ccccc4c3)C(=O)N[C@H](C(=O)NCCCC(=O)O)Cc3ccc(cc3)OCc3cn2nn3)N(C(=O)[C@@H](NC(=O)[C@H](C)NC)C(C)(C)C)C1)C(C)(C)C` [Compound 1032], the IC50 in assay [1] is at most 1 nM; at His-BIR3 (241-356, XIAP) it was under 10 nM.

With `CN[C@@H](C)C(=O)N[C@H](C(=O)N1C[C@@H]2C[C@H]1C(=O)N[C@@H](Cc1ccc3ccccc3c1)C(=O)N[C@H](C(=O)O)Cc1ccc(cc1)OCc1cn(nn1)[C@H]1C[C@@H](C(=O)N[C@@H](Cc3ccc4ccccc4c3)C(=O)N[C@H](C(=O)N[C@@H](C)C(=O)O)Cc3ccc(cc3)OCc3cn2nn3)N(C(=O)[C@@H](NC(=O)[C@H](C)NC)C(C)(C)C)C1)C(C)(C)C` [Compound 1033], the IC50 is 1 to 10 nM in assay [1] and under 10 nM against His-BIR3 (241-356, XIAP).

Consider `CN[C@@H](C)C(=O)N[C@H](C(=O)N1C[C@@H]2C[C@H]1C(=O)N[C@@H](Cc1ccc3ccccc3c1)C(=O)N[C@H](C(=O)O)Cc1ccc(cc1)OCc1cn(nn1)[C@H]1C[C@@H](C(=O)N[C@@H](Cc3ccc4ccccc4c3)C(=O)N[C@H](C(=O)N[C@@H](CCCCN)C(=O)N[C@@H](CO)C(=O)O)Cc3ccc(cc3)OCc3cn2nn3)N(C(=O)[C@@H](NC(=O)[C@H](C)NC)C(C)(C)C)C1)C(C)(C)C` [Compound 1034], for which the IC50 is over 10 nM in assay [1] and 10 to 100 nM at His-BIR3 (241-356, XIAP).

For `CN[C@@H](C)C(=O)N[C@H](C(=O)N1C[C@@H]2C[C@H]1C(=O)N[C@@H](Cc1ccc3ccccc3c1)C(=O)N[C@H](C(=O)O)Cc1ccc(cc1)OCc1cn(nn1)[C@H]1C[C@@H](C(=O)N[C@@H](Cc3ccc4ccccc4c3)C(=O)N[C@H](C(=O)NS(=O)(=O)c3ccccn3)Cc3ccc(cc3)OCc3cn2nn3)N(C(=O)[C@@H](NC(=O)[C@H](C)NC)C(C)(C)C)C1)C(C)(C)C` [Compound 1035], the half-inhibitory concentration (IC50) is at most 1 nM in assay [1] and under 10 nM on His-BIR3 (241-356, XIAP).

Turning to `CN[C@@H](C)C(=O)N[C@H](C(=O)N1C[C@@H]2C[C@H]1C(=O)N[C@@H](Cc1ccc3ccccc3c1)C(=O)N[C@H](C(=O)O)Cc1ccc(cc1)OCc1cn(nn1)[C@H]1C[C@@H](C(=O)N[C@@H](Cc3ccc4ccccc4c3)C(=O)N[C@H](C(=O)NS(=O)(=O)c3ccc(OC(F)(F)F)cc3)Cc3ccc(cc3)OCc3cn2nn3)N(C(=O)[C@@H](NC(=O)[C@H](C)NC)C(C)(C)C)C1)C(C)(C)C` [Compound 1036], the IC50 was in the range of 1 to 10 nM in assay [1] and 10 to 100 nM against His-BIR3 (241-356, XIAP).

As to `CN[C@@H](C)C(=O)N[C@H](C(=O)N1C[C@@H]2C[C@H]1C(=O)N[C@@H](Cc1ccc3ccccc3c1)C(=O)N[C@H](C(=O)O)Cc1ccc(cc1)OCc1cn(nn1)[C@H]1C[C@@H](C(=O)N[C@@H](Cc3ccc4ccccc4c3)C(=O)N[C@H](C(=O)NS(=O)(=O)CC3CC3)Cc3ccc(cc3)OCc3cn2nn3)N(C(=O)[C@@H](NC(=O)[C@H](C)NC)C(C)(C)C)C1)C(C)(C)C` [Compound 1037], the IC50 in assay [1] was 1 to 10 nM; against His-BIR3 (241-356, XIAP), 10 to 100 nM.

For the molecule `CN[C@@H](C)C(=O)N[C@H](C(=O)N1C[C@@H]2C[C@H]1C(=O)N[C@@H](Cc1ccc3ccccc3c1)C(=O)N[C@H](C(=O)O)Cc1ccc(cc1)OCc1cn(nn1)[C@H]1C[C@@H](C(=O)N[C@@H](Cc3ccc4ccccc4c3)C(=O)N[C@H](C(=O)N[C@@H](CC(=O)O)C(=O)N[C@H](CCSC)C(=O)O)Cc3ccc(cc3)OCc3cn2nn3)N(C(=O)[C@@H](NC(=O)[C@H](C)NC)C(C)(C)C)C1)C(C)(C)C` [Compound 1038], the IC50 in assay [1] was over 10 nM; at His-BIR3 (241-356, XIAP), 10 to 100 nM.

As for `CN[C@@H](C)C(=O)N[C@H](C(=O)N1C[C@@H]2C[C@H]1C(=O)N[C@@H](Cc1ccc3ccccc3c1)C(=O)N[C@H](C(=O)O)Cc1ccc(cc1)OCc1cn(nn1)[C@H]1C[C@@H](C(=O)N[C@@H](Cc3ccc4ccccc4c3)C(=O)N[C@H](C(=O)NS(=O)(=O)c3ccc4ccccc4c3)Cc3ccc(cc3)OCc3cn2nn3)N(C(=O)[C@@H](NC(=O)[C@H](C)NC)C(C)(C)C)C1)C(C)(C)C` [Compound 1039], the IC50 in assay [1] lay in the range of 1 to 10 nM; on His-BIR3 (241-356, XIAP), 10 to 100 nM.

Take `CN[C@@H](C)C(=O)N[C@H](C(=O)N1C[C@@H]2C[C@H]1C(=O)N[C@@H](Cc1ccc3ccccc3c1)C(=O)N[C@H](C(=O)O)Cc1ccc(cc1)OCc1cn(nn1)[C@H]1C[C@@H](C(=O)N[C@@H](Cc3ccc4ccccc4c3)C(=O)N[C@H](C(=O)NCc3cc(F)c(OC)c(F)c3)Cc3ccc(cc3)OCc3cn2nn3)N(C(=O)[C@@H](NC(=O)[C@H](C)NC)C(C)(C)C)C1)C(C)(C)C` [Compound 1040]: the IC50 is over 10 nM in assay [1] and over 100 nM on His-BIR3 (241-356, XIAP).

`CN[C@@H](C)C(=O)N[C@H](C(=O)N1C[C@@H]2C[C@H]1C(=O)N[C@@H](Cc1ccc3ccccc3c1)C(=O)N[C@H](C(=O)O)Cc1ccc(cc1)OCc1cn(nn1)[C@H]1C[C@@H](C(=O)N[C@@H](Cc3ccc4ccccc4c3)C(=O)N[C@H](C(=O)NCc3cc(F)c(O)c(F)c3)Cc3ccc(cc3)OCc3cn2nn3)N(C(=O)[C@@H](NC(=O)[C@H](C)NC)C(C)(C)C)C1)C(C)(C)C` [Compound 1041]: the IC50 in assay [1] was in the range of 1 to 10 nM; against His-BIR3 (241-356, XIAP), 10 to 100 nM.

For the molecule `CN[C@@H](C)C(=O)N[C@H](C(=O)N1C[C@@H]2C[C@H]1C(=O)N[C@@H](Cc1ccc3ccccc3c1)C(=O)N[C@H](C(=O)O)Cc1ccc(cc1)OCc1cn(nn1)[C@H]1C[C@@H](C(=O)N[C@@H](Cc3ccc4ccccc4c3)C(=O)N[C@H](C(=O)NC(CO)CO)Cc3ccc(cc3)OCc3cn2nn3)N(C(=O)[C@@H](NC(=O)[C@H](C)NC)C(C)(C)C)C1)C(C)(C)C` [Compound 1042], the IC50 in assay [1] lay within 1 to 10 nM; against His-BIR3 (241-356, XIAP), 10 to 100 nM.

As for `CN[C@@H](C)C(=O)N[C@H](C(=O)N1C[C@@H]2C[C@H]1C(=O)N[C@@H](Cc1ccc3ccccc3c1)C(=O)N[C@H](C(=O)O)Cc1ccc(cc1)OCc1cn(nn1)[C@H]1C[C@@H](C(=O)N[C@@H](Cc3ccc4ccccc4c3)C(=O)N[C@H](c3n[nH]oc3=O)Cc3ccc(cc3)OCc3cn2nn3)N(C(=O)[C@@H](NC(=O)[C@H](C)NC)C(C)(C)C)C1)C(C)(C)C` [Compound 1043], the IC50 in assay [1] was 1 to 10 nM; at His-BIR3 (241-356, XIAP), 10 to 100 nM.

On to `CN[C@@H](C)C(=O)N[C@H](C(=O)N1C[C@@H]2C[C@H]1C(=O)N[C@@H](Cc1ccc3ccccc3c1)C(=O)N[C@H](C(=O)O)Cc1ccc(cc1)OCc1cn(nn1)[C@H]1C[C@@H](C(=O)N[C@@H](Cc3ccc4ccccc4c3)C(=O)N[C@H](C(=O)NCC[C@@H](O)C[C@@H](O)CC(=O)O)Cc3ccc(cc3)OCc3cn2nn3)N(C(=O)[C@@H](NC(=O)[C@H](C)NC)C(C)(C)C)C1)C(C)(C)C` [Compound 1044], for which the half-maximal inhibitory concentration (IC50) was 1 to 10 nM in assay [1] and under 10 nM on His-BIR3 (241-356, XIAP).

As to `CN[C@@H](C)C(=O)N[C@H](C(=O)N1C[C@@H]2C[C@H]1C(=O)N[C@@H](Cc1ccc3ccccc3c1)C(=O)N[C@H](C(=O)O)Cc1ccc(cc1)OCc1cn(nn1)[C@H]1C[C@@H](C(=O)N[C@@H](Cc3ccc4ccccc4c3)C(=O)N[C@H](C(=O)NS(=O)(=O)CCCC(=O)O)Cc3ccc(cc3)OCc3cn2nn3)N(C(=O)[C@@H](NC(=O)[C@H](C)NC)C(C)(C)C)C1)C(C)(C)C` [Compound 1045], the IC50 in assay [1] was at most 1 nM; on His-BIR3 (241-356, XIAP), under 10 nM.

The values are drawn from US20140309265A1, “MACROCYCLIC COMPOUNDS FOR INHIBITION OF INHIBITORS OF APOPTOSIS” (Ensemble Therapeutics, priority 2011, published 2014).
